According to patent US8420637B2, “Abnormal cannabidiols as agents for lowering intraocular pressure” (Allergan, Inc., priority 2006, dated 2013):

What follows are compounds tested on Laser-induced unilaterally ocular hypertensive Cynomolgus monkeys (assay: Intraocular pressure by applanation pneumatonometry in conscious animals). Details: topical to one eye, dosed once, IOP measured over the course of 24 hours; female ocular hypertensive Cynomolgus monkeys.
Format: in vivo
Parameters: key: *: one star indicates no potency; ***: three stars indicates a very potent compound
Procedure: Intraocular pressure was measured by applanation pneumatonometry in conscious animals. The test compound was administered topically to one eye while vehicle was given to the fellow eye in a masked fashion. Laser-induced unilaterally ocular hypertensive Cynomolgus monkeys (females) were dosed once and the IOP was measured over the course of 24 hours.
The results are shown in the Table, below wherein the stars indicating the potency of the compound. That is, one star indicates no potency, three stars indicates a very potent compound.

Compound | Efficacy
Oc1cc(O)c(C2CCCCC2)c(Cl)c1 [9 (b), 5-Chloro-4-cyclohexylbenzene-1,3-diol] | ***
C=C(C)C1CCC(C)=CC1c1c(O)cc(O)cc1Cl (stereo not drawn) [Example 5, 5-Chloro-4-(6-Isopropenyl-3-methylcyclohex-2-enyl)benzene-1,3-diol] | ***
CC1CC(=O)CC(=O)N1C1CCCCC1 (stereo not drawn) [Example 20, 1-Cyclohexyl-6-methylpiperidine-2,4-dione] | ***
